Tested on: HIV-1 (strain IIIB)
Assay: Antiviral HIV activity in combination, tetrazolium-based (MTS) colorimetric checkerboard assay in MT-4 cells
Format: cell-based
Conditions: HIV-1 IIIB infected MT-4 cells, 5 days
Description: Antiviral HIV activity was measured by means of a tetrazolium-based colorimetric procedure in the human T-cell leukemia virus (HTLV-1) transformed cell line MT-4. Aliquots of test compound were diluted vertically across a deep-well master assay plate, in medium (RPMI 1640, 10% vol./vol. fetal bovine serum (FBS), and 10 μg/mL gentamicin), at concentrations that were approximately 40-fold higher than the final assay concentration. Serial dilutions were made at either 1:2 or 1:3.16 ratios. HIV inhibitors were diluted horizontally across master assay plates, also in concentrations that were approximately 40-fold higher than the final assay concentration. Small aliquots of both the vertically-diluted and the horizontally-diluted compounds were combined in daughter plates using an automated 96-well pipetting system (RapidPlate-96, Zymark Corp.). Checkerboard style dilutions were arranged so that every concentration of test compound was tested in the presence and absence of every concentration of the HIV inhibitors. Anti-HIV activity tests were performed in triplicate assays, or more, of each combination. Exponentially growing MT-4 cells were harvested and centrifuged at 1,000 rpm for 10 minutes in a Jouan centrifuge (Model CR 4 12). Cell pellets were re-suspended in fresh medium (RPMI 1640, 20% vol./vol. FBS, 20% vol./vol. IL-2, and 10 μg/mL gentamicin) to a density of 1.25×10^6 cells/mL. Cell aliquots were infected by the addition of HIV-1 (strain IIIB) diluted to give a viral multiplicity of infection (MOI) of 73 pfU per 1×10^4 cells. A similar cell aliquot was diluted with medium to provide a mock-infected control. Cell infection was allowed to proceed for 1 hour at 37° C. in a tissue culture incubator with humidified 5% CO2 atmosphere. After the 1 hour incubation the virus/cell suspension was added to each well of the plates containing pre-diluted compounds. Plates were then placed in a tissue culture incubator with humidified 5% CO2 for 5 days. At the end of the incubation period, […] of CellTiter 96 MTS reagent (Promega no. G3581) was added to each well of the incubation plate. Plates were incubated at 37° C. for 2 to 3 hours to allow for color development. O.D. was measured at […] using a microplate absorbance reader (Tecan no. 20-300).
HIV-1 strain IIIB, wild-type laboratory strain, virus titer=6.896 E4 TCID50/mL.
Although some assay formats might theoretically miss antagonism due to combination cytotoxicity, the approach described here should not miss an antagonistic effect. The readout in the MT-4 cell assay utilizes MTS, a tetrazolium-based staining reagent where changes in optical density (O.D.) of the reagent are used to estimate the total cell number remaining after treatment. Final MT-4 cell numbers may decrease due to two effects. First, an HIV-induced cytotoxicity may occur when HIV kills greater than 75% of the MT-4 cells during the 5 days following infection. Second, a compound-induced cytotoxicity may occur, where the compound either directly kills the MT-4 cells or prevents cell growth (stasis) over the 5 days in either infected or uninfected cells. In either of these situations the O.D. is low as compared with infected cells protected by anti-HIV-1 compounds or relative to untreated and uninfected control cells. Since both cytotoxic effects and antagonism of anti-HIV activity would lead to lower O.D. we should not miss an antagonistic effect due to combination cytotoxicity, but could underestimate synergistic combinations.
Within assay combination cytotoxicity was evaluated by comparing wells containing the uninfected MT-4 cells from the assay plates that contained the highest concentration of test compound or the comparator compound, with wells containing […] MT-4 cells under the corresponding highest combination concentrations. For each of these values there is one well per assay plate and thus at least 3 wells per combination assay. […]

C[C@@H]1CCO[C@H]2Cn3cc(C(=O)NCc4ccc(F)cc4F)c(=O)c(O)c3C(=O)N12 [formula (I)]
synergistic: interaction (deviation from dosewise additivity) of anti-HIV activity (in combination with abacavir) | interaction (deviation from dosewise additivity) of anti-HIV activity (in combination with amprenavir) | interaction (deviation from dosewise additivity) of anti-HIV activity (in combination with efavirenz) | interaction (deviation from dosewise additivity) of anti-HIV activity (in combination with enfuvirtide) | interaction (deviation from dosewise additivity) of anti-HIV activity (in combination with lopinavir) | interaction (deviation from dosewise additivity) of anti-HIV activity (in combination with nevirapine) | interaction (deviation from dosewise additivity) of anti-HIV activity (in combination with stavudine)
not affected: effect of the presence of ribavirin on anti-HIV activity (in the presence of ribavirin)
additive: interaction (deviation from dosewise additivity) of anti-HIV activity (in combination with adefovir) | interaction (deviation from dosewise additivity) of anti-HIV activity (in combination with maraviroc) | interaction (deviation from dosewise additivity) of anti-HIV activity (in combination with raltegravir)
